Several values for one entry are separate records, joined by “and”; a condition that tells them apart may be missing. Identical values can stand only once. Activity calls are given as the source filed them. The rule behind the calls is not given here.
Key:
Mus musculus [1] = assay: Anticonvulsant activity in ip dosed Kunming mouse assessed as MES-induced hind limb extension administered 0.5 hrs before MES stimulation; type: functional
Mus musculus [2] = assay: Anticonvulsant activity in ip dosed Kunming mouse assessed as reduction in ScPTZ-induced seizure administered 0.5 hrs before ScPTZ stimulation; type: functional
[3] = Neurotoxicity against ip dosed Kunming mouse assessed as time remained in rod measured at 0.5 hrs by rotarod test; type: toxicity, organism-based; settings: in vivo
Homo sapiens [4] = species on record: Homo sapiens; assay: Inhibition of human LDH1 assessed as remaining activity at 0.5 mM using sodium pyruvate as substrate by UV-VIS spectrophotometry method relative to control
Homo sapiens [5] = species on record: Homo sapiens; assay: Inhibition of human LDH5 assessed as remaining activity at 0.5 mM using sodium pyruvate as substrate by UV-VIS spectrophotometry method relative to control
Mus musculus [6] = assay: Anticonvulsant activity in Kunming mouse assessed as MES-induced hind limb extension at 100 mg/kg, ip administered 4 hrs before MES stimulation; type: functional, organism-based
Mus musculus [7] = assay: Anticonvulsant activity in Kunming mouse assessed as reduction in Sc3-MP-induced clonic seizure rate at 300 mg/kg, ip administered 0.5 hrs before Sc3-MP stimulation relative to control; type: functional; design: scale not given: the % may be the effect or the level left
Mus musculus [8] = assay: Anticonvulsant activity in Kunming mouse assessed as reduction in Sc3-MP-induced tonic seizure rate at 300 mg/kg, ip administered 0.5 hrs before Sc3-MP stimulation relative to control; type: functional; design: scale not given: the % may be the effect or the level left
Mus musculus [9] = assay: Anticonvulsant activity in Kunming mouse assessed as MES-induced hind limb extension at 100 mg/kg, ip administered 0. 5 to 2 hrs before MES stimulation; type: functional, organism-based
Mus musculus [10] = assay: Anticonvulsant activity in Kunming mouse assessed as MES-induced hind limb extension at 100 mg/kg, ip administered 3 hrs before MES stimulation; type: functional, organism-based
[11] = Neurotoxicity against Kunming mouse assessed as time remained in rod at 100 mg/kg, ip administered 0.5 to 2 hrs by rotarod test; type: toxicity, organism-based; settings: in vivo
Mus musculus [12] = assay: Anticonvulsant activity in Kunming mouse assessed as MES-induced hind limb extension at 50 mg/kg, ip administered 0.5 to 4 hrs before MES stimulation relative to control; type: functional
Mus musculus [13] = assay: Anticonvulsant activity in Kunming mouse assessed as MES-induced hind limb extension at 50 mg/kg, ip administered 0.5 and 2 hrs before MES stimulation relative to control; type: functional
Mus musculus [14] = assay: Anticonvulsant activity in Kunming mouse assessed as reduction in ScPTZ-induced seizure at 300 mg/kg, ip administered 0.25 to 2 hrs before ScPTZ stimulation relative to control; type: functional; design: scale not given: the % may be the effect or the level left
Mus musculus [15] = assay: Anticonvulsant activity in Kunming mouse assessed as reduction in ScPTZ-induced seizure at 100 mg/kg, ip administered 0.25 to 2 hrs before ScPTZ stimulation relative to control; type: functional
Mus musculus [16] = assay: Anticonvulsant activity in Kunming mouse assessed as reduction in ScPTZ-induced seizure at 100 mg/kg, ip administered 0.5 hrs before ScPTZ stimulation relative to control; type: functional; design: scale not given: the % may be the effect or the level left
Mus musculus [17] = assay: Anticonvulsant activity in Kunming mouse assessed as reduction in ScPTZ-induced seizure at 100 mg/kg, ip administered 1 hr relative to control; type: functional; design: scale not given: the % may be the effect or the level left
Mus musculus [18] = assay: Anticonvulsant activity in Kunming mouse assessed as reduction in ScPTZ-induced clonic seizure at 300 mg/kg, ip administered 0.5 hrs before ScPTZ stimulation relative to control; type: functional; design: scale not given: the % may be the effect or the level left
Mus musculus [19] = assay: Anticonvulsant activity in Kunming mouse assessed as reduction in ScPTZ-induced clonic seizure at 100 mg/kg, ip administered 0.5 hrs before ScPTZ stimulation relative to control; type: functional; design: scale not given: the % may be the effect or the level left
Mus musculus [20] = assay: Anticonvulsant activity in Kunming mouse assessed as reduction in ScPTZ-induced tonic seizure rate at 300 mg/kg, ip administered 0.5 hrs before ScPTZ stimulation relative to control; type: functional; design: scale not given: the % may be the effect or the level left
Mus musculus [21] = assay: Anticonvulsant activity in Kunming mouse assessed as reduction in ScPTZ-induced tonic seizure rate at 100 mg/kg, ip administered 0.5 hrs before ScPTZ stimulation relative to control; type: functional; design: scale not given: the % may be the effect or the level left
Mus musculus [22] = assay: Anticonvulsant activity in Kunming mouse assessed as reduction in Sc3-MP-induced seizure ip dosed measured at 0.5 hrs before Sc3-MP stimulation; type: functional
Mus musculus [23] = assay: […] activity in ip dosed Kunming mouse assessed as reduction in formalin-induced paw licking administered 0.5 hrs before formalin stimulation; type: functional
[24] = Protective index, ratio of TD50 for neurotoxicity against ip dosed Kunming mouse assessed as time remained in rod measured at 0.5 hrs by rotarod test to ED50 for anticonvulsant activity in ip dosed Kunming mouse assessed as MES-induced hind limb extension administered 0.5 hrs; type: toxicity, organism-based; settings: in vivo, read-out: PI
[25] = (§1) Protective index, ratio of TD50 for neurotoxicity against ip dosed Kunming mouse assessed as time remained in rod measured at 0.5 hrs by rotarod test to ED50 for anticonvulsant activity in ip dosed Kunming mouse assessed as reduction in ScPTZ-induced seizure administered 0.5 hrs before ScPTZ stimulation; type: toxicity, organism-based; settings: in vivo, read-out: PI
[26] = as §1, with “Sc3-MP-induced” for “ScPTZ-induced”, “Sc3-MP” for “ScPTZ”; type: toxicity, organism-based; settings: in vivo, read-out: PI
[27] = as §1, with “formalin-induced paw licking” for “ScPTZ-induced seizure”, “formalin” for “ScPTZ”; type: toxicity, organism-based; settings: in vivo, read-out: PI
Homo sapiens [28] = species on record: Homo sapiens; assay: Inhibition of human LDH1 at 0.5 mM using sodium pyruvate as substrate by UV-VIS spectrophotometry method relative to control
Homo sapiens [29] = species on record: Homo sapiens; assay: Inhibition of human LDH5 at 0.5 mM using sodium pyruvate as substrate by UV-VIS spectrophotometry method relative to control
Homo sapiens [30] = species on record: Homo sapiens; assay: Inhibition of human LDH1 at 0.5 mM using sodium pyruvate as substrate measured for 60 sec for every 5 mins by LC/MS-MS analysis
Homo sapiens [31] = species on record: Homo sapiens; assay: Inhibition of human LDH5 at 0.5 mM using sodium pyruvate as substrate measured for 60 sec for every 5 mins by LC/MS-MS analysis
Mus musculus [32] = assay: Anticonvulsant activity in Kunming mouse assessed as MES-induced hind limb extension at 100 mg/kg, ip administered 0. 5 hrs before MES stimulation relative to control; type: functional
Mus musculus [33] = assay: Anticonvulsant activity in Kunming mouse assessed as MES-induced hind limb extension at 100 mg/kg, ip administered 0. 5 to 4 hrs before MES stimulation relative to control; type: functional
Mus musculus [34] = assay: Anticonvulsant activity in Kunming mouse assessed as reduction in Sc3-MP-induced mortality rate at 300 mg/kg, ip administered 0.5 hrs before Sc3-MP stimulation relative to control; type: functional; design: scale not given: the % may be the effect or the level left
[35] = Noncompetitive inhibition of human LDH1 at 0.5 mM using sodium pyruvate as substrate by UV-VIS spectrophotometry method based Lineweaver-Burk plot analysis
[36] = Noncompetitive inhibition of human LDH5 at 0.5 mM using sodium pyruvate as substrate by UV-VIS spectrophotometry method based Lineweaver-Burk plot analysis

SMILES	ED50 (Mus musculus [1])	ED50 (Mus musculus [2])	TD50 at 0.5 h [3]	Activity (Mus musculus [7])	Activity (Mus musculus [8])	Activity (Mus musculus [9])	Activity [11]	Activity (Mus musculus [12])	Activity (Mus musculus [13])	Activity (Mus musculus [14])	Activity (Mus musculus [15])	Activity (Mus musculus [18])	Activity (Mus musculus [19])	Activity (Mus musculus [20])	Activity (Mus musculus [21])	ED50 (Mus musculus [22])	ED50 (Mus musculus [23])	selectivity ratio at 0.5 h [24]	selectivity ratio at 0.5 h [25]	selectivity ratio at 0.5 h [26]	other results
NC(=O)N1c2ccccc2C=Cc2ccccc21 [CARBAMAZEPINE]	18.1 mg/kg and 76.5 µmol/kg	> 100 mg/kg and > 423 µmol/kg	303 µmol/kg	–	–	–	–	–	–	–	–	–	–	–	–	–	–	–	–	–	Activity (Homo sapiens [4]): 100%; Activity (Homo sapiens [5]): 100%
COc1cc(OC)c(OC)cc1/C=C/COC(=O)/C=C/c1ccc(F)cc1	92.9 µmol/kg and 34.6 mg/kg	167 mg/kg and 449 µmol/kg	> 2690 µmol/kg and > 1000 mg/kg	100%	75%	Active	Non-Toxic	50%	75%	50%	inactive	100%	100%	0%	100%	> 300 mg/kg and > 806 µmol/kg	43.4 mg/kg and 116 µmol/kg	> 28.9	> 5.9	5	Activity (Mus musculus [6]): Active; Activity (Mus musculus [10]): Active; Activity (Mus musculus [16]): 100%; Activity (Mus musculus [17]): 75%; selectivity ratio at 0.5 h [27]: 23; inhibition (Homo sapiens [28]): < 5%; inhibition (Homo sapiens [29]): < 9%; inhibition (Homo sapiens [30]): 5%; inhibition (Homo sapiens [31]): 5%; Activity (Mus musculus [32]): 100%; Activity (Mus musculus [33]): 25 - 100%
COc1cc(OC)c(OC)cc1/C=C/COC(=O)/C=C/c1c(OC)ccc(OC)c1OC	120 µmol/kg and 53.5 mg/kg	212 mg/kg and 476 µmol/kg	> 1000 mg/kg and > 2250 µmol/kg	100%	75%	Active	Non-Toxic	50%	50%	50%	inactive	100%	100%	50%	100%	> 300 mg/kg and > 675 µmol/kg	180 to 225 µmol/kg	> 18.7	4.72	3.3	Activity (Mus musculus [34]): 25%; selectivity ratio at 0.5 h [27]: 12.5; inhibition (Homo sapiens [28]): Active; inhibition (Homo sapiens [29]): Active; Ki [35]: 12 µM; Ki [36]: 3.52 µM; Activity (Mus musculus [32]): 100%; Activity (Mus musculus [33]): 25 - 100%

Source: ChEMBL document CHEMBL4311969, “Polygala tenuifolia-Acori tatarinowii herbal pair as an inspiration for substituted cinnamic α-asaronol esters: Design, synthesis, anticonvulsant activity, and inhibition of lactate dehydrogenase study” (Eur J Med Chem, 2019)
